This is an account of results in patent US12390435B2, “Electrophiles and electrophile pro-drugs as RAD51 inhibitors” (University of Pittsburgh—Of the Commonwealth System of …, priority 2018, dated 2025).

The structures appear in SMILES notation.

Holding throughout (type): cell-based
Test [1] deals with single strand annealing (SSA). The test is described as follows: GFP reporter assay for single strand annealing. Conditions: 5 μM, 48 h. On the procedure:
FIG. 13B is GFP-reporter assays examining effects of OA-NO2 on different DNA DSB repair pathways described in FIG. 14A. U2OS cells containing the GFP-reporter construct DR-GFP were transfected with an I-SceI plasmid and treated with vehicle (gray), 5 μM OA (green) or 5 μM OA-NO2 (red). The number of GFP positive cells were detected by flow cytometry at 48 h. GFP-reporter measuring NHEJ: n=3, SSA: n=3; HDR: n=3; Alt-EJ: n=1.
Measurements of NHEJ, HR, Alt-EJ and SSA assays were performed as previously described. HR activity was measured by counting GFP-positive cells by flow cytometry at the MWRI flow cytometry core using a BD LSRII (BD Biosciences). RAD51 overexpressing cells were generated by stable transfection of pLVX RAD51 IRES Neo and selection with geneticin (Invitrogen).
On the technique in general: Reporter assays use an easily measured gene product as a stand-in for the process of interest.

In another test the target is T1, RAD51-ABL complex (Homo sapiens, UniProt Q06609).
T1 construct: expressed in transfected cells; host or cells: HEK 293T
Description: FLAG-RAD51/ABL immunoprecipitation in 293T cells. The settings on record: 0 to 5 μM, 1 h. How it is done: Cell lysates and immunoprecipitation were prepared. For immunoprecipitation analysis, one million HEK 293T cells were transiently transfected with Fugene 6 (Promega) and 2 μg pQCXIP (EV) or FLAG-RAD51 pQCXIP plasmids and precipitated with Anti-FLAG M2 Affinity Gel (Sigma).
Cys319 is located in the RAD51 C-terminus within one of the two ABL-SH3 binding domains (amino acids 283-286 and 318-321). […] ABL regulates RAD51 activity via sequential phosphorylation of RAD51 Tyr54 and then Tyr315.

The test system of a further test is MCF-10A cells. The test is described as follows: FACS cell cycle analysis. The settings on record: 5 μM, 24 hr. How it is done:
(§1) Adherent and nonadherent cells were collected, centrifuged at 2000×rpm for 10 min, washed with ice-cold phosphate-buffered saline, fixed with cold 70% ethanol at 4° C. for 30 mins, and stained with 50 μg/mL propidium iodide (Sigma-Aldrich). FACS analysis was performed at the University of Pittsburgh Department of Immunology Unified Flow Core Facility. Three individual experiments were done, and statistical comparisons among phases (G0/G1, S, and G2/M) were determined by one-way analysis of variance followed by Tukey post-test.

For test [2], the system named is MDA-MB-231 and MDA-MB-468 cells. The test is described as follows: FACS cell cycle analysis. The settings on record: 5 μM, 24 hr. How it is done:
as §1

Test [3] shares this test system. The test is described as follows: Boyden chamber cell migration. The settings on record: 5 μM. On the procedure:
MDA-MB-231 and MDA-MB-468 cells were subjected to cell migration analysis in Boyden chambers. The bottom of a 12-well membrane filter (BD Biosciences) was coated with 10 μg/mL fibronectin for 12 hr before each experiment. […] Cells were trypsinized and washed with migration media (DMEM containing 0.1% fatty acid-free BSA) to remove serum. Cells at a density of 10^5/well were then placed in the upper chamber with migration media containing the same pretreatment conditions. The cells were allowed to migrate towards the 5% FBS chemoattractant for 5 hr. Non-migrated cells from the top surface were removed with cotton swabs. Migrated cells were fixed with 4% paraformaldehyde (Electron Microscopy Sciences), then stained with 0.5% crystal violet (Sigma-Aldrich) for 15 min. Migrated cell density on the filters was observed by microscopy. The crystal violet on migrated cells was de-stained with 10% acetic acid, and the absorbance in individual filters was determined at […] nm. Images are representative of three individual experiments, and statistical comparison among treatments was determined by one-way analysis of variance followed by Tukey post-test.

The subject of a further test is MDA-MB-468 cells. The test is described as follows: Matrigel cell invasion assay. Conditions: NO2-OA/NO2-SA 5 μM, JSH-23 10 μM, TNFα 20 ng/mL, 24 hr. How it is done:
Cells were then suspended in migration media and placed in the top well of invasion chambers (EMD Millipore). Chemoattractant (5% FBS) was placed in the lower chamber for 24 hr at 37° C. to attract invasive cells. Cells were then harvested and invasion rates were determined according to manufacturer's protocol. Three individual experiments were done, and statistical comparison among treatments was determined by one-way analysis of variance followed by Tukey post-test.

For a further test, the system named is IKKβ. The test is described as follows: TNFα-induced IKKβ phosphorylation, IκBα phosphorylation and degradation. How it is done:
All studies used two TNBC cell lines, MDA-MB-231 and MDA-MB-468. […] For IκBα degradation, cells were treated as described above and stimulated with 20 ng/mL TNFα for 10 min.
(§2) Western blotting was performed. 20-60 μg of total lysates per lane were loaded on 7%, 10%, or 12% SDS-PAGE and transferred onto nitrocellulose or polyvinylidene difluoride membranes (Bio-Rad). The membranes were probed with primary antibodies against caspase-3, multi-drug resistance protein-1 (MRP1), poly [ADP ribose] polymerase-1 (PARP-1), ubiquitin, RelA; cyclin D1, p21, caspase-9, MRP4, IKKβ, pIKKβ, IκBα, or pIκBα (Cell Signaling); caspase-8 (R&D Systems). Samples were normalized to β-actin (Sigma-Aldrich) or GAPDH (Trevigen).

Test [4] deals with RelA in MDA-MB-231 and MDA-MB-468 cells. The test is described as follows: RelA protein level and polyubiquitination. How it is done:
Lysates were clarified by centrifugation at 14,000×g for 10 min. Protein lysates (1 mg) were incubated with anti-RelA antibody and Protein G/A conjugated agarose beads (EMD Millipore, Bedford, MA) at 4° C., overnight. Immunoprecipitation fraction were obtained by centrifugation at 14,000×g for 1 min at RT and washed with lysis buffer three times. The immunoprecipitated RelA was resolved by 8% SDSPAGE gel, and transferred to nitrocellulose membrane (Bio-Rad) for immunoblotting probed with an anti-ubiquitin antibody (Santa Cruz Biotechnology). The blot was then stripped and probed with an anti-RelA antibody to assess amounts of RelA protein pull-down.
as §2

T1 sequence (Q06609 whole entry, one chain of several): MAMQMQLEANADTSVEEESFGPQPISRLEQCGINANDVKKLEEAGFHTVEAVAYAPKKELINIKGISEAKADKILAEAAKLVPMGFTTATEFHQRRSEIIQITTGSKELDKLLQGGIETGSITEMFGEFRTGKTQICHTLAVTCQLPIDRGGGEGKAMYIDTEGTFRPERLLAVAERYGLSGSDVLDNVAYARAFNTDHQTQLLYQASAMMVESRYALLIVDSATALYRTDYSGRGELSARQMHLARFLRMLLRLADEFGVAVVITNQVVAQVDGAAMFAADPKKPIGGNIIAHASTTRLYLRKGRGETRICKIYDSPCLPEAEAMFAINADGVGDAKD

Consider `CCCCCCCCC(=CCCCCCCCC(=O)O)[N+](=O)[O-]` [NO2-OA, 10-nitro-octadec-9-enoic acid], for which the “effect on single strand annealing” value in test [1] was “also inhibits single strand annealing”. Also, at RAD51-ABL complex, the “ABL bound to RAD51” value is on record as “decreased the amount of ABL bound to RAD51” and the “RAD51 Tyr315 phosphorylation” value is “inhibited”. In the test on MCF-10A cells, the “cell cycle phase populations (G0/G1, S, G2/M)” value is “not affected”. Moreover, in test [2], the “cell cycle phase distribution” value was “significantly increased the percentage of cells at G2/M phase”. Also, the “basal, non-stimulated migration” value in test [3] was “modestly inhibited”. Further, the TNFα-induced cell migration entry in test [3] (TNFα 20 ng/mL) is reported as “significantly inhibited”. In addition, the TNFα-induced invasion result with MDA-MB-468 cells is reported as “significantly inhibited”. The “TNFα-induced IKKβ phosphorylation” value in the test on IKKβ (NO2-OA 5 μM or BAY11-7082 10 μM 2 hr, TNFα 20 ng/mL 5 min) is recorded as “diminished”. In addition, the “degradation of IκBα following TNFα stimulation” value with IKKβ (TNFα 20 ng/mL, 10 min) is given as “inhibited the degradation of IκBβ”. Moreover, the IκBα phosphorylation entry in the test on IKKβ (with proteasome inhibitor MG-132 10 μM) is “decreased IκBβ phosphorylation”. In test [4] (5 μM, 5 hr), the “polyubiquitination of RelA” value is recorded as “promoted polyubiquitination of RelA”. For the same molecule, the RelA protein abundance result in test [4] (5 μM, 24 hr) is listed as “decreased the abundance of RelA”. Further, the “RelA mRNA levels” value in test [4] (all three cell lines (MDA-MB-231, MDA-MB-468, MCF-10A)) is reported as “not altered”.
